# US8629100B2, “Method of inhibiting clostridium difficile by administration of oritavancin” (The Medicines Company, priority 2007, dated 2014)
# Legend:
# [1] = system: Staphylococcus aureus NCTC 6571; assay: Growth on antibiotic-exposed cellulose acetate filters (Example 3C); format: cell-based; conditions: overnight culture
# Method: One mL solutions (containing no C. difficile spores) were processed as in Experiment 2B and filters placed onto Braziers CCEY agar. Onto the filters were inoculated 2×20 μL of:
# c) Staphylococcus aureus NCTC 6571 (Oxford strain, overnight culture).
# Growth/no growth was recorded following anaerobic incubation.
# Oxford S. aureus = assay: Antimicrobial-spore binding: washed exposed spores on S. aureus lawn (Example 3D); format: cell-based, Staphylococcus aureus; conditions: spores suspended in 350 mg/L; after 0, 1, 2, 4, 5, 6, 9 and 10 washes
# Method: A further potential explanation for the failure to recover oritavancin-treated C. difficile spores from the above experiments (in addition to presence of the drug in cellulose acetate filters) is that oritavancin may be able to bind C. difficile spores and directly damage spores, or inhibit spore germination and/or outgrowth. A simple experiment was conducted in order to assess antimicrobial-spore binding:
# Two solutions were prepared:
# 1) C. difficile spores (PCR ribotype 001, control), and
# 2) C. difficile spores suspended in 350 mg/L oritavancin (diluent: Tween-80-H2O).
# Fresh blood agar was inoculated with a lawn of the Oxford S. aureus. In one replicate, C. difficile spores were centrifuged (16000 g, 5 min), the supernatants removed and pellets re-suspended in 500 μL of Tween-80-H2O. 10 μL of the re-suspended spore suspension was inoculated onto the surface S. aureus lawn.
# In another replicate, C. difficile spore suspensions were washed a total of 10 times using this procedure and inoculated onto the surface of the S. aureus lawn.
# In both replicates agar was incubated aerobically at 37° C. overnight, and then the presence or absence of zones of inhibition were recorded.
# C. difficile spores = assay: Agar-based culture: spore recovery after antimicrobial exposure; format: cell-based; conditions: 350 mg/L, 1 min and 30 min, filtered onto CAF, 48 h
# Method: Antimicrobial-spore solutions were mixed, diluted (to sub-MIC) in sterile de-ionised water, filtered onto cellulose acetate filters (CAF, 0.45 μm) and washed. CAF were transferred onto Brazier's agar (pH 7)+5 mg/L lysozyme, and following anaerobic incubation (37° C., 48 h), % C. difficile spores (vs. control) were determined.
# [2] = system: genotypically distinct C. difficile (n = 33); assay: Broth macrodilution MIC; format: cell-based; conditions: for MIC range / MIC90 / MIC: BM, broth macrodilution; for MIC90 / MIC: Clostridioides difficile; for MIC: read-out: GEO MIC
# [3] = system: genotypically distinct C. difficile (n = 33); assay: Agar incorporation MIC; format: cell-based; conditions: for MIC range / MIC90: AI; for MIC90 / MIC: Clostridioides difficile
# From the text: Thirty-three genotypically distinct (by PCR ribotyping) C. difficile isolates were selected from a library of strains at the Leeds General Infirmary (Leeds, UK). Representative isolates of epidemic C. difficile PCR ribotypes 001, 106 and 027 were included in the panel. Control isolates of Staphylococcus aureus ATCC 29213, Enterococcus faecalis ATCC 29212 and Bacteroides fragilis ATCC 25285 were included in all MIC determinations to ensure procedure accuracy.
# Agar incorporation MICs were determined based on the method of Freeman and Wilcox (J Antimicrob Chemother 2001; 47: 244-6). Briefly, bacteria were cultured in Schaedler's anaerobic broth (Oxoid, Basingstoke, UK) at 37° C. for 24 h in an anaerobic cabinet (Don Whitley Scientific, Shipley). […] Oritavancin was prepared in 0.002% P80. All antimicrobial solutions were sterilized by filtration through 0.22 um syringe filters. […] Wilkins Chalgren agar (Oxoid) incorporating doubling dilutions of antimicrobial agents (0.03-16 mg/L) was prepared with and without 0.002% P80 and with and without 2% lysed horse blood (E&O Labs, Bonneybridge, UK). All media and diluents were pre-reduced overnight in the anaerobic cabinet. Bacterial cultures were diluted in sterile saline and inoculated onto the surface of agar incorporation agar plates using a multipoint inoculator (˜10^4 cfu). Agar incorporation plates were incubated anaerobically for 48 h. MIC endpoints were read as the lowest concentration of antimicrobial agent where there is no apparent growth (disregarding a visible haze of growth or a single colony).
# S. aureus NCTC 6571 = assay: Agar incorporation MIC against S. aureus NCTC 6571; format: cell-based; conditions: Staphylococcus aureus, NCTC6571; agar incorporation methodology
# C. difficile ATCC 43255 = assay: Hamster model of CDI, intravenous administration; format: in vivo, Syrian golden hamsters
# Method: C. difficile ATCC 43255 was used in all experiments. This strain was originally isolated from an abdominal wound and is toxin A+/B+ and binary toxin negative. C. difficile spores were prepared for the infection by incubating C. difficile cells on blood agar plate at 37° C. anaerobically for 7 days, to promote spore formation. The C. difficile colonies were resuspended in phosphate buffered saline (PBS) and mixed with an equal volume of 100% ethanol for one hour. The spores were centrifuged, resuspended in PBS, aliquoted, and frozen at −20° C. Spores were diluted in PBS for oral inoculation into hamsters.
# All studies were performed in accordance with protocols that were approved by the Institutional Animal Care and Use Committee. […] One day later (Day 0), animals were infected orally with 10^5 C. difficile spores by oral gavage.
# Starting on Day 1 post-infection, either vehicle, vancomycin (50 mg/kg), or oritavancin formulated in 10% hydroxypropyl β-cyclodextrin (HPCD) (50 mg/kg) was administered intravenously […] to the hamsters (n=10/group). A total of either 1, 2 or 3 doses of oritavancin was injected on Days 1, 3, and 5, respectively (q2d).
# The infected hamsters received the first dose of antibiotic on day 1 and treatment was repeated each 2 days for up to five days; an untreated group was used as control.
# [4] = read-out: GEO MIC, AI, P80 no LHB
# [5] = read-out: GEO MIC, AI, P80 with LHB
# [6] = read-out: GEO MIC, AI, no P80 no LHB
# [7] = read-out: GEO MIC, AI, no P80 with LHB
# [8] = three intravenous doses 50 mg/kg q2d (Days 1, 3, 5)
Compound,Growth of S. aureus NCTC 6571 on filters through which antibiotic had been filtered [1],MIC range [2] [µg/mL],MIC90 [2] [µg/mL],MIC [2] [µg/mL],MIC range ([3]; P80 no LHB) [µg/mL],MIC range ([3]; P80 with LHB) [µg/mL],MIC range ([3]; no P80 no LHB) [µg/mL],MIC range ([3]; no P80 with LHB) [µg/mL],MIC90 ([3]; P80 no LHB) [µg/mL],MIC90 ([3]; P80 with LHB) [µg/mL],MIC90 ([3]; no P80 no LHB) [µg/mL],MIC90 ([3]; no P80 with LHB) [µg/mL],"MIC [3, 4] [µg/mL]","MIC [3, 5] [µg/mL]","MIC [3, 6] [µg/mL]","MIC [3, 7] [µg/mL]",Survival prolonged compared to untreated animals (C. difficile ATCC 43255; [8]) [days],further results
"CN[C@H](CC(C)C)C(=O)N[C@H]1C(=O)N[C@@H](CC(N)=O)C(=O)N[C@H]2C(=O)N[C@H]3C(=O)N[C@H](C(=O)N[C@H](C(=O)O)c4cc(O)cc(O)c4-c4cc3ccc4O)[C@H](O[C@H]3C[C@](C)(N)[C@@H](O)[C@H](C)O3)c3ccc(c(Cl)c3)Oc3cc2cc(c3O[C@@H]2O[C@H](CO)[C@@H](O)[C@H](O)[C@H]2O[C@H]2C[C@](C)(NCc3ccc(-c4ccc(Cl)cc4)cc3)[C@@H](O)[C@H](C)O2)Oc2ccc(cc2Cl)[C@H]1O [oritavancin, N-(4-(4-chlorophenyl)benzyl)A82846B]",grew,0.06 to 1,1,0.31,2 to 4,1 to 4,2 to 4,0.5 to 4,4,4,4,2,2.7,1.58,2.33,1.72,7,"Effect of antibiotic-exposed C. difficile spores on growth of Oxford S. aureus (Oxford S. aureus): inhibitory to growth; Recovery of C. difficile spores following exposure (C. difficile spores): not recovered; Broth macrodilution MICs lower than agar incorporation MICs [2]: 2- to 4 fold; Broth macrodilution geometric mean MICs lower than those for metronidazole [2]: ~2 fold; Broth macrodilution geometric mean MICs lower than those for vancomycin [2]: ~5 fold; Tested isolates more susceptible (≧2 doubling dilutions) than to vancomycin [2]: 76%; MIC (S. aureus NCTC 6571): ~4 µg/mL; Survival longer than animals with equivalent dose and regimen (2×q2d) of vancomycin (C. difficile ATCC 43255; 2 doses 50 mg/kg intravenous): 5 days; Survival prolonged compared to untreated animals (C. difficile ATCC 43255; one intravenous dose 50 mg/kg (Day 1), in 10% HPCD): 4 days; Survival prolonged compared to untreated animals (C. difficile ATCC 43255; two intravenous doses 50 mg/kg q2d (Days 1 and 3), in 10% HPCD): 5 days"
CN[C@H](CC(C)C)C(=O)N[C@H]1C(=O)N[C@@H](CC(N)=O)C(=O)N[C@H]2C(=O)N[C@H]3C(=O)N[C@H](C(=O)N[C@H](C(=O)O)c4cc(O)cc(O)c4-c4cc3ccc4O)[C@H](O)c3ccc(c(Cl)c3)Oc3cc2cc(c3O[C@@H]2O[C@H](CO)[C@@H](O)[C@H](O)[C@H]2O[C@H]2C[C@](C)(N)[C@H](O)[C@H](C)O2)Oc2ccc(cc2Cl)[C@H]1O [vancomycin],grew,0.5 to 2,2,1.58,1 to 4,0.5 to 2,0.5 to 2,1 to 4,2,1,2,2,1.3,1,1.51,1.35,8,Proportional survival rate on Day 5 (C. difficile ATCC 43255; 50 mg/kg q2d intravenous): 30%; Treated animals that died between the second and third injections (Days 3 and 5) (C. difficile ATCC 43255; 50 mg/kg q2d intravenous): 70%
